Measurements from patent EP4600243A2, “NOVEL BICYCLIC HETEROCYCLYL COMPOUNDS AND USE THEREOF” (Jeil Pharmaceutical Co., Ltd., priority 2022, dated 2024).

Molecular target: T1, protein-protein interaction between SOS1 and KRAS G12C (Homo sapiens, UniProt Q07889)
T1 construct: purchased Cisbio 64KRASG12PEG
T1 sequence (Q07889 1-1333): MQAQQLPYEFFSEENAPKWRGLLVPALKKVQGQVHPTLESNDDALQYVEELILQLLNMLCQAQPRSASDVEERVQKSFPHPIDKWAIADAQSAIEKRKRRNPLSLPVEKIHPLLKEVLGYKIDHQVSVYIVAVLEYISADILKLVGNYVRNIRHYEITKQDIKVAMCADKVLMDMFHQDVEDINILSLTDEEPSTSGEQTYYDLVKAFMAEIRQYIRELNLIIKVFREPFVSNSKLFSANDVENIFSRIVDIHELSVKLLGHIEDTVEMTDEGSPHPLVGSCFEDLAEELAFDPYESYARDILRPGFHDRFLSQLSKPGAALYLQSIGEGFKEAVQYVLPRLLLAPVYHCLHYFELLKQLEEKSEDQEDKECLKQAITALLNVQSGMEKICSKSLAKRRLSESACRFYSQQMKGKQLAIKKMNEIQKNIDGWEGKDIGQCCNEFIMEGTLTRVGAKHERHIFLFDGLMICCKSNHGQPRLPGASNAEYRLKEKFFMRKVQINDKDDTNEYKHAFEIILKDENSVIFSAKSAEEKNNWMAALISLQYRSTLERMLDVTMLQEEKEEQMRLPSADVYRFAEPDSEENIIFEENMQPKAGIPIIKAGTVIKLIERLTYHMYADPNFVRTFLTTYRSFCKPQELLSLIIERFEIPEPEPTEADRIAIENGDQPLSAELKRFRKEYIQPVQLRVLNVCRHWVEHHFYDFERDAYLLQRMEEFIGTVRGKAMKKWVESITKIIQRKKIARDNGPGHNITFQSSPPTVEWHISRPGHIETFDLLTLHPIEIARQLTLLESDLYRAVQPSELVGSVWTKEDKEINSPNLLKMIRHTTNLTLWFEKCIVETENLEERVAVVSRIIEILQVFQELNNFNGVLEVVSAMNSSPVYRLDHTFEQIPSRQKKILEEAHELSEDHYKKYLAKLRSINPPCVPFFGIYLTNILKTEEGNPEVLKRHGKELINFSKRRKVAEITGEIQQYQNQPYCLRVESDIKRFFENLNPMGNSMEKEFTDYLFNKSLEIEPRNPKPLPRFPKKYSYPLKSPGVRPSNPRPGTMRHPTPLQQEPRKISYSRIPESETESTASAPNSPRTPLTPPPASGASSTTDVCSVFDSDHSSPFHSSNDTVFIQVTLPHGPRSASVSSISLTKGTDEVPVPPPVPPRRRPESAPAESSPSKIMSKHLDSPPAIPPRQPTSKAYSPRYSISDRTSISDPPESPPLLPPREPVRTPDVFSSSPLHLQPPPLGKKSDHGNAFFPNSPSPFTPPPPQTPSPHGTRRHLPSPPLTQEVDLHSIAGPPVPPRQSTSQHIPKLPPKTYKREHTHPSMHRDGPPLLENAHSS
Test: KRAS::SOS1 HTRF binding analysis (KRAS G12C/SOS1 binding kit)
Settings: compound at 0.1 uM
Method: 1-1. KRAS::SOS1 HTRF binding analysis
An SOS1 inhibitory ability of the example compounds of the present invention was confirmed by identifying the effect of inhibiting a protein-protein interaction between SOS1 and KRAS G12C of the compounds according to examples of the present invention.
Specifically, a KRAS G12C/SOS1 binding kit (64KRASG12PEG, Cisbio, France) was purchased and used. 2 µℓ of Tag1-KRAS G12C and 2 µℓ of GTP were premixed and dispensed 4 µl each into a 384 well plate (6007290, PerkinElmer, USA). 2 µℓ of the compound and 4 µℓ of Tag2-SOS1 were placed and then 10 µℓ of premixed Anti-Tag1 XL665 antibody and Anti-Tag2 Tb cryptate antibody was dispensed to each well. The plates were sealed and allowed to react at room temperature for one hour and 40 minutes, and then 665 nm wavelength and 620 nm wavelength were measured using a HTRF® compatible reader (Synergy H4, BioTeK, USA), and the ratio of receptor and donor emission signals for each well was calculated as 665 nm/620 nm×10^4.
(+++: more than 70 to 100% inhibition, ++: more than 40 to 70% inhibition, +: 0 to 40% inhibition) [Table 4]

| inhibition at 0.1 µM | Structure (SMILES) |
| --- | --- |
| 0 to 40% | CC(=O)N1CC=C(c2ccc3nncc(N[C@H](C)c4cccc(C(F)F)c4F)c3c2)CC1 [Example 1, (R)-1-(4-(4-(1-(3-(difluoromethyl)-2-fluorophenyl)ethylamino)cinnolin-6-yl)-5,6-dihydropyridin-1(2H)-yl)ethanone] |
| 0 to 40% | C[C@@H](Nc1cnnc2ccc(C3=CCOCC3)cc12)c1cccc(C(F)F)c1F [Example 4, (R)-N-(1-(3-(difluoromethyl)-2-fluorophenyl)ethyl)-6-(3,6-dihydro-2H-pyran-4-yl)cinnolin-4-amine] |
| 40 to 70% | C[C@@H](Nc1cnnc2ccc(N3CCC(N(C)C)CC3)cc12)c1cccc(C(F)F)c1F [Example 6, (R)-N-(1-(3-(difluoromethyl)-2-fluorophenyl)ethyl)-6-(4-(dimethylamino)piperidin-1-yl)cinnolin-4-amine] |
| 70 to 100% | C[C@@H](Nc1cnnc2ccc(N3CC4(CN(C)C4)C3)cc12)c1cccc(C(F)F)c1F [Example 7, (R)-N-(1-(3-(difluoromethyl)-2-fluorophenyl)ethyl)-6-(6-methyl-2,6-diazaspiro[3.3]heptan-2-yl)cinnolin-4-amine] |
| 0 to 40% | C[C@@H](Nc1cnnc2ccc(N3CCN(C4COC4)CC3)cc12)c1cccc(C(F)F)c1F [Example 8, (R)-N-(1-(3-(difluoromethyl)-2-fluorophenyl)ethyl)-6-(4-(oxetan-3-yl)piperazin-1-yl)cinnolin-4-amine] |
| 40 to 70% | C[C@@H](Nc1cnnc2ccc(N3CCN4CCOC[C@@H]4C3)cc12)c1cccc(C(F)F)c1F [Example 9, N-((R)-1-(3-(difluoromethyl)-2-fluorophenyl)ethyl)-6-((S)-hexahydropyrazino[2,1-c][1,4]oxazin-8(1H)-yl)cinnolin-4-amine] |
| 0 to 40% | C[C@@H](Nc1cnnc2ccc(N3CCOCC3)cc12)c1cccc(C(F)F)c1F [Example 10, (R)-N-(1-(3-(difluoromethyl)-2-fluorophenyl)ethyl)-6-morpholinocinnolin-4-amine] |
| 0 to 40% | C[C@@H](Nc1cnnc2ccc(N3CC4(COC4)C3)cc12)c1cccc(C(F)F)c1F [Example 11, (R)-N-(1-(3-(difluoromethyl)-2-fluorophenyl)ethyl)-6-(2-oxa-6-azaspiro[3.3]heptan-6-yl)cinnolin-4-amine] |
| 40 to 70% | C[C@@H](Nc1cnnc2ccc(N3C[C@H]4C[C@@H]3CO4)cc12)c1cccc(C(F)F)c1F [Example 13, 6-((1R,4R)-2-oxa-5-azabicyclo[2.2.1]heptan-5-yl)-N-((R)-1-(3-(difluoromethyl)-2-fluorophenyl)ethyl)cinnolin-4-amine] |
| 0 to 40% | C[C@@H](Nc1cnnc2ccc(N3C[C@@H]4C[C@H]3CO4)cc12)c1cccc(C(F)F)c1F [Example 14, 6-((1S,4S)-2-oxa-5-azabicyclo[2.2.1]heptan-5-yl)-N-((R)-1-(3-(difluoromethyl)-2-fluorophenyl)ethyl)cinnolin-4-amine] |
| 0 to 40% | C[C@@H](Nc1cnnc2ccc(N3CC4CCC(C3)O4)cc12)c1cccc(C(F)F)c1F [Example 16, 6-(8-oxa-3-azabicyclo[3.2.1]octan-3-yl)-N-((R)-1-(3-(difluoromethyl)-2-fluorophenyl)ethyl)cinnolin-4-amine] |
| 0 to 40% | C[C@@H](Nc1cnnc2ccc(N3CCSCC3)cc12)c1cccc(C(F)F)c1F [Example 17, (R)-N-(1-(3-(difluoromethyl)-2-fluorophenyl)ethyl)-6-thiomorpholinocinnolin-4-amine] |
| 70 to 100% | C[C@@H](Nc1cnnc2ccc(N3CCC(O)CC3)cc12)c1cccc(C(F)F)c1F [Example 18, (R)-1-(4-((1-(3-(difluoromethyl)-2-fluorophenyl)ethyl)amino)cinnolin-6-yl)piperidin-4-ol] |
| 40 to 70% | C[C@@H](Nc1cnnc2ccc(N3CCC(C)(O)CC3)cc12)c1cccc(C(F)F)c1F [Example 19, (R)-1-(4-((1-(3-(difluoromethyl)-2-fluorophenyl)ethyl)amino)cinnolin-6-yl)-4-methylpiperidin-4-ol] |
| 0 to 40% | C[C@@H](Nc1cnnc2ccc(N3CCC[C@@H](O)C3)cc12)c1cccc(C(F)F)c1F [Example 20, (R)-1-(4-(((R)-1-(3-(difluoromethyl)-2-fluorophenyl)ethyl)amino)cinnolin-6-yl)piperidin-3-ol] |
| 40 to 70% | C[C@@H](Nc1cnnc2ccc(N3CCC[C@H](O)C3)cc12)c1cccc(C(F)F)c1F [Example 21, (S)-1-(4-(((R)-1-(3-(difluoromethyl)-2-fluorophenyl)ethyl)amino)cinnolin-6-yl)piperidin-3-ol] |
| 0 to 40% | COC1CCN(c2ccc3nncc(N[C@H](C)c4cccc(C(F)F)c4F)c3c2)CC1 [Example 22, (R)-N-(1-(3-(difluoromethyl)-2-fluorophenyl)ethyl)-6-(4-methoxypiperidin-1-yl)cinnolin-4-amine] |
| 0 to 40% | CO[C@@H]1CCCN(c2ccc3nncc(N[C@H](C)c4cccc(C(F)F)c4F)c3c2)C1 [Example 23, N-((R)-1-(3-(difluoromethyl)-2-fluorophenyl)ethyl)-6-((R)-3-methoxypiperidin-1-yl)cinnolin-4-amine] |
| 0 to 40% | CO[C@H]1CCCN(c2ccc3nncc(N[C@H](C)c4cccc(C(F)F)c4F)c3c2)C1 [Example 24, N-((R)-1-(3-(difluoromethyl)-2-fluorophenyl)ethyl)-6-((S)-3-methoxypiperidin-1-yl)cinnolin-4-amine] |
| 0 to 40% | C[C@@H](Nc1cnnc2ccc(N3CC[C@@H](F)C3)cc12)c1cccc(C(F)F)c1F [Example 25, N-((R)-1-(3-(difluoromethyl)-2-fluorophenyl)ethyl)-6-((R)-3-fluoropyrrolidin-1-yl)cinnolin-4-amine] |
| 0 to 40% | C[C@@H](Nc1cnnc2ccc(N3CC[C@H](F)C3)cc12)c1cccc(C(F)F)c1F [Example 26, N-((R)-1-(3-(difluoromethyl)-2-fluorophenyl)ethyl)-6-((S)-3-fluoropyrrolidin-1-yl)cinnolin-4-amine] |
| 40 to 70% | C[C@@H](Nc1cnnc2ccc(N3CC[C@@H](O)C3)cc12)c1cccc(C(F)F)c1F [Example 27, (R)-1-(4-(((R)-1-(3-(difluoromethyl)-2-fluorophenyl)ethyl)amino)cinnolin-6-yl)pyrrolidin-3-ol] |

| Structure (SMILES) | inhibition at 0.1 µM |
| --- | --- |
| C[C@@H](Nc1cnnc2ccc(C3=CCN(C)CC3)cc12)c1cccc(C(F)F)c1F [Example 3, (R)-N-(1-(3-(difluoromethyl)-2-fluorophenyl)ethyl)-6-(1-methyl-1,2,3,6-tetrahydropyridin-4-yl)cinnolin-4-amine] | 70 to 100% |
| C[C@@H](Nc1cnnc2ccc(N3CC4CC(C3)O4)cc12)c1cccc(C(F)F)c1F [Example 12, 6-(6-oxa-3-azabicyclo[3.1.1]heptan-3-yl)-N-((R)-1-(3-(difluoromethyl)-2-fluorophenyl)ethyl)cinnolin-4-amine] | 40 to 70% |
| C[C@@H](Nc1cnnc2ccc(N3C4CCC3COC4)cc12)c1cccc(C(F)F)c1F [Example 15, 6-(3-oxa-8-azabicyclo[3.2.1]octan-8-yl)-N-((R)-1-(3-(difluoromethyl)-2-fluorophenyl)ethyl)cinnolin-4-amine] | 0 to 40% |
